Measurements published in patent US10143201B2, “Fungicidal compositions” (Syngenta Crop Protection LLC, priority 2007, dated 2018).
Where “and” joins values, the source holds several entries; their conditions need not be identical. Equal values may be shown once.

How the values were obtained:
[1] = test system: Alternaria solani; test: Fungicidal action against Alternaria solani (early blight tomato/potato), microtiter growth inhibition; type: cell-based; conditions: alone
Procedure: Example B4: Fungicidal Action Against Alternaria solani (Early Blight Tomato/Potato)
Conidia of the fungus from cryogenic storage are directly mixed into nutrient broth (PDB potato dextrose broth). After placing a (DMSO) solution of the test compounds into a microtiter plate (96-well format) the nutrient broth containing the fungal spores is added. The test plates are incubated at 24° C. and the inhibition of growth is evaluated after 3 days. The expected fungicidal action is calculated according to the Colby method.

[2] = test system: Pyrenophora teres; test: Fungicidal action against Pyrenophora teres (net blotch), microtiter growth inhibition; type: cell-based
Procedure: Example B6: Fungicidal Action Against Pyrenophora teres (Net Blotch)
(§1) Conidia of the fungus from cryogenic storage are directly mixed into nutrient broth (PDB potato dextrose broth). After placing a (DMSO) solution of the test compounds into a microtiter plate (96-well format) the nutrient broth containing the fungal spores is added. The test plates are incubated at 24° C. and the inhibition of growth is evaluated after 4 days. The expected fungicidal action is calculated according to the Colby method.

[3] = test system: Monopraphella nivalis (syn. Microdochium nivale, Fusarium nivale); test: Fungicidal action against Monopraphella nivalis (snow mould, foot rot of cereals), microtiter growth inhibition; type: cell-based; conditions: compound alone
Procedure: Example B9: Fungicidal Action Against Monopraphella nivalis (Syn. Microdochium nivale, Fusarium nivale), Snow Mould, Foot Rot of Cereals
Conidia of the fungus from cryogenic storage are directly mixed into nutrient broth (PDB potato dextrose broth). After placing a (DMSO) solution of the test compounds into a microtiter plate (96-well format) the nutrient broth containing the fungal spores is added. The test plates are incubated at 24 C and the inhibition of growth is evaluated after 4 days.

[4] = test system: Cercospora arachidicola (syn. Mycosphaerella arachidis); test: Fungicidal action against Cercospora arachidicola (brown leaf spot of groundnut), microtiter growth inhibition; type: cell-based; conditions: compound alone
Procedure: Example B8: Fungicidal Action Against Cercospora arachidicola (Syn. Mycosphaerella arachidis), Brown Leaf Spot of Groundnut (Peanut)
Conidia of the fungus from cryogenic storage are directly mixed into nutrient broth (PDB potato dextrose broth). After placing a (DMSO) solution of the test compounds into a microtiter plate (96-well format) the nutrient broth containing the fungal spores is added. The test plates are incubated at 24 C and the inhibition of growth is evaluated after 7 days.

[5] = test system: Septoria tritici; test: Fungicidal action against Septoria tritici (leaf blotch), microtiter growth inhibition; type: cell-based; conditions: alone
Procedure: Example B3: Fungicidal Action Against Septoria tritici (Leaf Blotch)
as §1

[6] = test system: Phakopsora pachyrhizi; test: Action against Asian soybean rust, leaf disc test; type: in vivo; conditions: 14 days after inoculation
Procedure: Example B-1: Action Against Asian Soybean Rust (Phakopsora pachyrhizi)—Leaf Disc Test
Whole soybean plants (variety brand Williams82) are treated with the recited active ingredients 4 weeks after planting. 1 day after spraying leaf disks are cut from the first trifoliate leaf. Five repetitions at each rate are conducted. The leaf disks are inoculated with Phakopsora pachyrhizi (Asian soybean rust) one day after treatment. Evaluation of the leaf disks is conducted fourteen days after inoculation and the mean percent infestation of the five repetitions is calculated. Standard EC100 formulations are used. The rates of the active ingredients used are given in Table B1 as g active ingredient (a.i.)/ha.

[7] = test system: Colletotrichum lagenarium (syn. Glomerella lagenarium); test: Fungicidal action against Colletotrichum lagenarium (anthracnose of cucurbits), microtiter growth inhibition; type: cell-based; conditions: compound alone
Procedure: Example B10: Fungicidal Action Against Colletotrichum lagenarium (Syn. Glomerella lagenarium), Anthracnose of Cucurbits Conidia of the fungus from cryogenic storage are directly mixed into nutrient broth (PDB potato dextrose broth). After placing a (DMSO) solution of the test compounds into a microtiter plate (96-well format) the nutrient broth containing the fungal spores is added. The test plates are incubated at 24 C and the inhibition of growth is evaluated after 3 days.

[8] = test system: Pseudocercosporella herpotrichoides (syn. Tapesia yallundae); test: Fungicidal action against Pseudocercosporella herpotrichoides (eye spot of cereals), microtiter growth inhibition; type: cell-based; conditions: alone
Procedure: Example B5: Funicidal Action Against Pseudocercosporella herpotrichoides (Syn. Tapesia yallundae), Eye Spot of Cereals
as §1

[9] = test system: Botrytis cinerea; test: Fungicidal action against Botrytis cinerea (gray mould), microtiter growth inhibition; type: cell-based; conditions: alone
Procedure: Example B2: Fungicidal Action Against Botrytis cinerea (Gray Mould)
as §1

[10] = test system: Gaeumannomyces graminis; test: Fungicidal action against Gaeumannomyces graminis (take-all of cereals), microtiter growth inhibition; type: cell-based; conditions: compound alone
Procedure: Example B7: Fungicidal Action Against Gaeumannomyces graminis (Take-all of Cereals)
Mycelial fragments of the fungus from cryogenic storage are directly mixed into nutrient broth (PDB potato dextrose broth). After placing a (DMSO) solution of the test compounds into a microtiter plate (96-well format) the nutrient broth containing the fungal spores is added. The test plates are incubated at 24 C and the inhibition of growth is evaluated after 4 days.

Cn1cc(C(=O)Nc2cccc3c2C2CCC3C2=C(Cl)Cl)c(C(F)(F)F)n1 (stereo not shown)
183 to 188 °C and 179 to 181 °C: melting point

Cn1cc(C(=O)Nc2cccc3c2C2CCC3C2=C(F)F)c(C(F)F)n1 (stereo not shown) [Compound A-1.2, 3-difluoromethyl-1-methyl-1H-pyrazole-4-carboxylic acid (9-difluoromethylidene-benzonorbornene-5-yl)amide]
94%: % Control of Phakopsora pachyrhizi ([6]; 250 g a.i./ha)
39%: % Control of Phakopsora pachyrhizi ([6]; 31.25 g a.i./ha)
54%: % Control of Phakopsora pachyrhizi ([6]; 62.5 g a.i./ha)
20%: % activity ([1]; 0.1250 ppm) | % activity ([2]; 0.1250 ppm, alone) | % activity ([2]; 0.2500 ppm, alone) | % activity ([2]; compound alone, 0.1250 ppm) | % activity ([2]; compound alone, 0.2500 ppm) | % activity ([4]; 0.1250 ppm) | % activity ([5]; 0.2500 ppm) | % activity ([7]; 0.5000 ppm) | % activity ([9]; 0.1250 ppm) | % activity ([9]; 0.2500 ppm) | % activity ([9]; 0.5000 ppm)
70% and 50%: % activity ([4]; 0.2500 ppm)
70% and 90%: % activity ([10]; 0.5000 ppm)
70%: % activity ([2]; compound alone, 2.0000 ppm) | % activity ([3]; 2.0000 ppm) | % activity ([5]; 1.0000 ppm) | % activity ([8]; 0.5000 ppm) | % activity ([9]; 2.0000 ppm)
50%: % activity ([1]; 0.2500 ppm) | % activity ([1]; 0.5000 ppm) | % activity ([2]; compound alone, 0.5000 ppm) | % activity ([2]; compound alone, 1.0000 ppm) | % activity ([3]; 1.0000 ppm) | % activity ([5]; 0.5000 ppm) | % activity ([7]; 1.0000 ppm) | % activity ([9]; 1.0000 ppm)
0%: % activity ([1]; 0.0313 ppm) | % activity ([2]; 0.0078 ppm, alone) | % activity ([2]; 0.0156 ppm, alone) | % activity ([2]; 0.0313 ppm, alone) | % activity ([2]; compound alone, 0.0313 ppm) | % activity ([4]; 0.0156 ppm) | % activity ([4]; 0.0313 ppm) | % activity ([4]; 0.0625 ppm) | % activity ([5]; 0.0078 ppm) | % activity ([5]; 0.0156 ppm) | % activity ([5]; 0.1250 ppm) | % activity ([7]; 0.0313 ppm) | % activity ([7]; 0.0625 ppm) | % activity ([7]; 0.1250 ppm) | % activity ([8]; 0.0039 ppm) | % activity ([8]; 0.0078 ppm) | % activity ([8]; 0.0156 ppm) | % activity ([8]; 0.0313 ppm) | % activity ([8]; 0.0625 ppm) | % activity ([9]; 0.0313 ppm) | % activity ([10]; 0.0156 ppm) | % activity ([10]; 0.0313 ppm) | % activity ([10]; 0.0625 ppm) | % activity ([10]; 0.1250 ppm)
44%: % Control of Phakopsora pachyrhizi ([6]; 125 g a.i./ha)

CC(Cc1ccc(C(C)(C)C)cc1)CN1C[C@@H](C)O[C@@H](C)C1 (stereo partly shown) [Fenpropimorph]
0%: inhibition at 0.0625 ppm ([3]; Microdochium nivale, 0.0625 ppm) | inhibition at 0.125 ppm ([3]; Microdochium nivale, 0.1250 ppm) | inhibition at 0.25 ppm ([3]; Microdochium nivale, 0.2500 ppm) | inhibition at 0.5 ppm ([3]; Microdochium nivale, 0.5000 ppm) | inhibition at 1 ppm ([3]; Microdochium nivale, 1.0000 ppm) | inhibition at 2 ppm ([3]; Microdochium nivale, 2.0000 ppm) | inhibition at 0.0625 ppm ([4]; Mycosphaerella arachidis, 0.0625 ppm) | inhibition at 0.125 ppm ([4]; Mycosphaerella arachidis, 0.1250 ppm) | inhibition at 0.25 ppm ([7]; Colletotrichum orbiculare, 0.2500 ppm) | inhibition at 0.5 ppm ([7]; Colletotrichum orbiculare, 0.5000 ppm) | inhibition at 0.25 ppm ([10]; Gaeumannomyces graminis, 0.2500 ppm) | inhibition at 0.5 ppm ([10]; Gaeumannomyces graminis, 0.5000 ppm) | inhibition at 1 ppm ([10]; Gaeumannomyces graminis, 1.0000 ppm)
20%: inhibition at 0.25 ppm ([4]; Mycosphaerella arachidis, 0.2500 ppm) | inhibition at 1 ppm ([7]; Colletotrichum orbiculare, 1.0000 ppm) | inhibition at 2 ppm ([7]; Colletotrichum orbiculare, 2.0000 ppm) | inhibition at 2 ppm ([10]; Gaeumannomyces graminis, 2.0000 ppm)
50%: inhibition at 0.5 ppm ([4]; Mycosphaerella arachidis, 0.5000 ppm)
